Like-named read-outs stand apart in the source and are kept apart here. Values belong to the compound of their own block, whether it stands above or below them.
Experiments:
[1] = no reference given, cited from earlier work
[2] = Degradation of LEU and L18FCs and conversion to LEU in human plasma; assay type: in vitro ADME
[3] = no reference given, cited from earlier work; remark: listed apart in the source
[4] = 1 mg intravenous administration; no reference given; cited from earlier work

Compound: CCCCCCCC/C=C\CCCCCCCC(=O)O [Oleic acid]
- log P ([1]; C18 fatty acids, Table 2): 7.64

- metabolised at 840 h, 1 mg/mL [2]: ~45.8%
Compound: CCNC(=O)[C@@H]1CCCN1C(=O)[C@H](CCCNC(=N)N)NC(=O)[C@H](CC(C)C)NC(=O)[C@@H](CC(C)C)NC(=O)[C@H](Cc1ccc(O)cc1)NC(=O)[C@H](CO)NC(=O)[C@H](Cc1c[nH]c2ccccc12)NC(=O)[C@H](Cc1c[nH]cn1)NC(=O)[C@@H]1CCC(=O)N1 [LEU, leuprolide]
- Solubility in phosphate buffered solution (PBS) ([3]; PBS, introduction statement): approximately 10 mg/mL

Compound: leuprolide acetate [LEU acetate]
- Solubility ([3]; in water): ≥ 66.66 mg/mL (52.51 mM) in water
- log P ([1]; LEU acetate, Table 1): −2.7–1.07
- Half life [4]: 3 h

Compound: CCCCC/C=C\C/C=C\CCCCCCCC(=O)O [Linoleic acid]
- log P ([1]; C18 fatty acids, Table 2): 7.05

Compound: CCCCCCCCCCCCCCCCCC(=O)O [Stearic acid]
- log P ([1]; C18 fatty acids, Table 2): 8.23
